Measured values published in the supplement of paper PMC9663587.

Columns and labels:
Experiment in all cases: increase in dead-cell fraction, 72 h; higher = more death;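 also: breast cancer cell lines in 384-well plates, stained with Hoechst plus LIVE/DEAD far red dye and imaged, cells above an LDR intensity threshold counted dead, Hoechst-negative corpses included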
[1] = compound: CC(=O)Nc1cccc(-n2c(=O)n(C3CC3)c(=O)c3c(Nc4ccc(I)cc4F)n(C)c(=O)c(C)c32)c1
[2] = compound: CC1(CCN(CC1)C2=CN=C(C(=N2)N)C3=C(C(=CC=C3)Cl)Cl)N [SHP099]
[3] = compound: CCC1=CN=CN=C1N2CCN(CC2)CC3=NC4=C(N3)C=C(C=C4)C(F)(F)F
[4] = compound: CCNC(=O)c1noc(-c2cc(C(C)C)c(O)cc2O)c1-c1ccc(CN2CCOCC2)cc1 [Luminespib/NVP-AUY922]
[5] = compound: CN(C)C/C=C/C(=O)Nc1ccc(O[C@@H]2CCC[C@@H](Nc3ncc(Cl)c(-c4c[nH]c5ccccc45)n3)C2)cc1 [BSJ-01-175]
[6] = compound: CN1CCN(CCOc2cc(OC3CCOCC3)c3c(Nc4c(Cl)ccc5c4OCO5)ncnc3c2)CC1 [Saracatinib/AZD0530]
[7] = compound: CNC(=O)c1cccc(-c2ccc3c(N4CCOC[C@@H]4C)nc(N4CCOC[C@@H]4C)nc3n2)c1 [AZD2014]
[8] = compound: CNCc1ccc(-c2[nH]c3cc(F)cc4c3c2CCNC4=O)cc1 [Rucaparib]
[9] = compound: CNc1nc(-c2ccc3c(N)n[nH]c3c2)cc(N2C[C@@H](C(=O)NC3CCCCC3)CC[C@H]2C)n1
[10] = compound: COc1cc2nccc(Oc3ccc(NC(=O)C4(C(=O)Nc5ccc(F)cc5)CC4)cc3)c2cc1OC [Cabozantinib]
[11] = compound: C[C@@H]1COCCN1c1cc(C2([S@](C)(=N)=O)CC2)nc(-c2cc[nH]c3nccc2-3)n1 [AZD6738]
[12] = compound: O=C(c1cc(Cc2n[nH]c(=O)c3ccccc23)ccc1F)N1CCN(C(=O)C2CC2)CC1 [Olaparib/AZD2281]

Cell Line: AU565
- increase in dead-cell fraction ([1]; 0.0001 µM): 0.0026
- increase in dead-cell fraction ([1]; 0.0003162 µM): 0.0025
- increase in dead-cell fraction ([1]; 0.001 µM): 0.0021
- increase in dead-cell fraction ([1]; 0.003162 µM): 0.0022
- increase in dead-cell fraction ([1]; 0.01 µM): 0.0009
- increase in dead-cell fraction ([1]; 0.03162 µM): -0.0017
- increase in dead-cell fraction ([1]; 0.1 µM): -0.0015
- increase in dead-cell fraction ([1]; 0.3162 µM): -0.0026
- increase in dead-cell fraction ([1]; 1 µM): 0.0032
- increase in dead-cell fraction ([2]; 0.001 µM): -0.0127
- increase in dead-cell fraction ([2]; 0.003162 µM): -0.0116
- increase in dead-cell fraction ([2]; 0.01 µM): -0.0073
- increase in dead-cell fraction ([2]; 0.03162 µM): -0.0133
- increase in dead-cell fraction ([2]; 0.1 µM): -0.0124
- increase in dead-cell fraction ([2]; 0.3162 µM): -0.0047
- increase in dead-cell fraction ([2]; 1 µM): -0.0147
- increase in dead-cell fraction ([2]; 3.162 µM): 0.0036
- increase in dead-cell fraction ([2]; 10 µM): -0.0053
- increase in dead-cell fraction ([3]; 0.001 µM): 0.0018
- increase in dead-cell fraction ([3]; 0.003162 µM): -0.0015
- increase in dead-cell fraction ([3]; 0.01 µM): -0.0042
- increase in dead-cell fraction ([3]; 0.03162 µM): -0.0013
- increase in dead-cell fraction ([3]; 0.1 µM): 0.0031
- increase in dead-cell fraction ([3]; 0.3162 µM): -0.0005
- increase in dead-cell fraction ([3]; 1 µM): 0.001
- increase in dead-cell fraction ([3]; 3.162 µM): 0.0056
- increase in dead-cell fraction ([3]; 10 µM): 0.0157
- increase in dead-cell fraction ([4]; 0.0001 µM): -0.0018
- increase in dead-cell fraction ([4]; 0.0003162 µM): -0.0005
- increase in dead-cell fraction ([4]; 0.001 µM): -0.0013
- increase in dead-cell fraction ([4]; 0.003162 µM): 0.0017
- increase in dead-cell fraction ([4]; 0.01 µM): 0.0215
- increase in dead-cell fraction ([4]; 0.03162 µM): 0.03
- increase in dead-cell fraction ([4]; 0.1 µM): 0.0462
- increase in dead-cell fraction ([4]; 0.3162 µM): 0.0389
- increase in dead-cell fraction ([4]; 1 µM): 0.0492
- increase in dead-cell fraction ([5]; 0.001 µM): -0.006
- increase in dead-cell fraction ([5]; 0.003162 µM): 0.0214
- increase in dead-cell fraction ([5]; 0.01 µM): 0.121
- increase in dead-cell fraction ([5]; 0.03162 µM): 0.26
- increase in dead-cell fraction ([5]; 0.1 µM): 0.296
- increase in dead-cell fraction ([5]; 0.3162 µM): 0.35
- increase in dead-cell fraction ([5]; 1 µM): 0.443
- increase in dead-cell fraction ([5]; 3.162 µM): 0.432
- increase in dead-cell fraction ([5]; 10 µM): 0.68
- increase in dead-cell fraction ([6]; 0.001 µM): -0.003
- increase in dead-cell fraction ([6]; 0.003162 µM): 0.0003
- increase in dead-cell fraction ([6]; 0.01 µM): 0.0038
- increase in dead-cell fraction ([6]; 0.03162 µM): -0.0046
- increase in dead-cell fraction ([6]; 0.1 µM): -0.0038
- increase in dead-cell fraction ([6]; 0.3162 µM): -0.0029
- increase in dead-cell fraction ([6]; 1 µM): 0.0012
- increase in dead-cell fraction ([6]; 3.162 µM): 0.0017
- increase in dead-cell fraction ([6]; 10 µM): 0.0305
- increase in dead-cell fraction ([7]; 0.001 µM): 0.0342
- increase in dead-cell fraction ([7]; 0.003162 µM): 0.0014
- increase in dead-cell fraction ([7]; 0.01 µM): 0.032
- increase in dead-cell fraction ([7]; 0.03162 µM): 0.0412
- increase in dead-cell fraction ([7]; 0.1 µM): 0.0311
- increase in dead-cell fraction ([7]; 0.3162 µM): 0.107
- increase in dead-cell fraction ([7]; 1 µM): 0.0854
- increase in dead-cell fraction ([7]; 3.162 µM): 0.0584
- increase in dead-cell fraction ([7]; 10 µM): 0.126
- increase in dead-cell fraction ([8]; 0.001 µM): 0.0051
- increase in dead-cell fraction ([8]; 0.003162 µM): -0.0024
- increase in dead-cell fraction ([8]; 0.01 µM): 0.0015
- increase in dead-cell fraction ([8]; 0.03162 µM): 0.0073
- increase in dead-cell fraction ([8]; 0.1 µM): -0.0049
- increase in dead-cell fraction ([8]; 0.3162 µM): -0.0044
- increase in dead-cell fraction ([8]; 1 µM): -0.0017
- increase in dead-cell fraction ([8]; 3.162 µM): -0.0036
- increase in dead-cell fraction ([8]; 10 µM): -0.0017
- increase in dead-cell fraction ([9]; 0.001 µM): -0.0175
- increase in dead-cell fraction ([9]; 0.003162 µM): 0.001
- increase in dead-cell fraction ([9]; 0.01 µM): 0.0046
- increase in dead-cell fraction ([9]; 0.03162 µM): 0.0008
- increase in dead-cell fraction ([9]; 0.1 µM): 0.0065
- increase in dead-cell fraction ([9]; 0.3162 µM): 0.0014
- increase in dead-cell fraction ([9]; 1 µM): 0.0253
- increase in dead-cell fraction ([9]; 3.162 µM): 0.0252
- increase in dead-cell fraction ([9]; 10 µM): 0.0432
- increase in dead-cell fraction ([10]; 0.001 µM): 0.0017
- increase in dead-cell fraction ([10]; 0.003162 µM): 0.0057
- increase in dead-cell fraction ([10]; 0.01 µM): 0.0018
- increase in dead-cell fraction ([10]; 0.03162 µM): -0.0008
- increase in dead-cell fraction ([10]; 0.1 µM): -0.003
- increase in dead-cell fraction ([10]; 0.3162 µM): 0.0025
- increase in dead-cell fraction ([10]; 1 µM): 0.0028
- increase in dead-cell fraction ([10]; 3.162 µM): -0.0021
- increase in dead-cell fraction ([10]; 10 µM): 0.0274
- increase in dead-cell fraction ([11]; 0.001 µM): 0.0013
- increase in dead-cell fraction ([11]; 0.003162 µM): 0.0103
- increase in dead-cell fraction ([11]; 0.01 µM): -0.0124
- increase in dead-cell fraction ([11]; 0.03162 µM): -0.0113
- increase in dead-cell fraction ([11]; 0.1 µM): -0.0075
- increase in dead-cell fraction ([11]; 0.3162 µM): -0.003
- increase in dead-cell fraction ([11]; 1 µM): 0.0064
- increase in dead-cell fraction ([11]; 3.162 µM): 0.0079
- increase in dead-cell fraction ([11]; 10 µM): 0.0831
- increase in dead-cell fraction ([12]; 0.001 µM): -0.0007
- increase in dead-cell fraction ([12]; 0.003162 µM): -0.0016
- increase in dead-cell fraction ([12]; 0.01 µM): 0.0011
- increase in dead-cell fraction ([12]; 0.03162 µM): -0.0026
- increase in dead-cell fraction ([12]; 0.1 µM): 0.0033
- increase in dead-cell fraction ([12]; 0.3162 µM): -0.0012
- increase in dead-cell fraction ([12]; 1 µM): -0.006
- increase in dead-cell fraction ([12]; 3.162 µM): -0.0026
- increase in dead-cell fraction ([12]; 10 µM): 0.0043
